Results as given in ChEMBL document CHEMBL4715703, “Engineering of a Novel Simplified Human Insulin-Like Peptide 5 Agonist” (J Med Chem, 2016).
Where a SMILES comes first, the peptide text is derived from it. Bridges are numbered along the chain shown (N, C = ends). Roman numbers before positions name the chains, in order.

Assays:
[1] = biological target: T1, Relaxin-3 receptor 2 (Homo sapiens, UniProt Q8TDU9); assay: Agonist activity at human RXFP4 expressed in CHO-K1 cells assessed as reduction in forskolin-induced cAMP production by pCRE beta-galactosidase reporter assay; type: functional, cell-based
[2] = biological target: T1, Relaxin-3 receptor 2; assay: Displacement of europium-labeled Eu(A)-mINSL5 from human RXFP4 expressed in CHO-K1 cells; type: cell-based

T1 sequence (Q8TDU9 whole entry): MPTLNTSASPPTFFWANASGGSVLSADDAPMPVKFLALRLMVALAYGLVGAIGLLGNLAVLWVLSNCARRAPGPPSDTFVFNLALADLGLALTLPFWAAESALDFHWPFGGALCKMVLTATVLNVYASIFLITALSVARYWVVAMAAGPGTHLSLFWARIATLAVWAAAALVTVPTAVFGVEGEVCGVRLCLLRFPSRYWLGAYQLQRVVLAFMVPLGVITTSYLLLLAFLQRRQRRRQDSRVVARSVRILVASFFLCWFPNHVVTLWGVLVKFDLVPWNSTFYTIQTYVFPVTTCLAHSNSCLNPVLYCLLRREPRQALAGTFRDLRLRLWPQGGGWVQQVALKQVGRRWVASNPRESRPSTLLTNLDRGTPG

| Compound | EC50 [1] | Ki [2] |
| --- | --- | --- |
| CC[C@H](C)[C@@H]1NC(=O)[C@H](Cc2ccc(O)cc2)NC(=O)[C@H]([C@@H](C)CC)NC(=O)[C@H](C(C)C)NC(=O)[C@H]([C@@H](C)O)NC(=O)[C@H](CCCNC(=N)N)NC(=O)[C@H](C(C)C)NC(=O)[C@H](Cc2ccc(O)cc2)NC(=O)[C@H](CC(=O)O)NC(=O)[C@H](CC(C)C)NC(=O)CNC(=O)[C@@H](NC(=O)[C@H](CC(C)C)NC(=O)[C@H](CCCCN)NC(=O)[C@@H](NC(=O)[C@@H](NC(=O)[C@H](CCC(N)=O)NC(=O)[C@H](CCCNC(=N)N)NC(=O)[C@@H](N)CO)[C@@H](C)O)C(C)C)CSSC[C@@H]2NC(=O)[C@@H](NC(=O)[C@H](CC(C)C)NC(=O)[C@@H](NC(=O)[C@H](CCC(N)=O)NC(=O)[C@H](CC(C)C)NC(=O)[C@H](CC(=O)O)NC(=O)C3CCC(=O)N3)[C@@H](C)O)CSSC[C@@H](NC(=O)CNC(=O)[C@H](CC(=O)O)NC(=O)[C@H]([C@@H](C)O)NC2=O)C(=O)N[C@H](CO)C(=O)N[C@H](CCSC)C(=O)N[C@H]([C@H](C)O)C(=O)N[C@H](CC(=O)O)C(=O)N[C@H](CC(C)C)C(=O)N[C@H](CO)C(=O)N[C@H](C)C(=O)N[C@H](CC(C)C)C(=O)N[C@@H](C(=O)O)CSSC[C@H](C(=O)N[C@@H](C)C(=O)N[C@@H](CO)C(=O)N[C@@H](CO)C(=O)N[C@@H](CCCNC(=N)N)C(=O)N[C@@H](Cc2c[nH]c3ccccc23)C(=O)O)NC1=O (stereo not given in full) | 2.75 nM | – |
| CC[C@H](C)[C@@H]1NC(=O)[C@H](C(C)C)NC(=O)[C@H]([C@@H](C)O)NC(=O)[C@H](CCCNC(=N)N)NC(=O)[C@H](C(C)C)NC(=O)[C@H](Cc2ccc(O)cc2)NC(=O)[C@H](CC(=O)O)NC(=O)[C@H](CC(C)C)NC(=O)CNC(=O)[C@@H](NC(=O)[C@H](CC(C)C)NC(=O)[C@H](CCCCN)NC(=O)[C@@H](NC(=O)[C@@H](NC(=O)[C@H](CCC(N)=O)NC(=O)[C@H](CCCNC(=N)N)NC(=O)[C@@H](N)CO)[C@@H](C)O)C(C)C)CSSC[C@@H]2NC(=O)[C@@H](NC(=O)[C@H](CC(C)C)NC(=O)[C@H](C)NC(=O)[C@H](CCC(N)=O)NC(=O)[C@H](CC(C)C)NC(=O)[C@H](CC(=O)O)NC(=O)[C@@H](N)CCCNC(=N)N)CSSC[C@H](NC(=O)CNC(=O)[C@H](CCC(=O)O)NC(=O)[C@H](CCCNC(=N)N)NC2=O)C(=O)N[C@@H](CO)C(=O)N[C@@H](CCSC)C(=O)N[C@@H](CCCCN)C(=O)N[C@@H](CCC(=O)O)C(=O)N[C@@H](CC(C)C)C(=O)N[C@@H](CO)C(=O)N[C@@H]([C@@H](C)O)C(=O)N[C@@H](CC(C)C)C(=O)N[C@H](C(=O)O)CSSC[C@@H](C(=O)N[C@@H](C)C(=O)N[C@@H](CO)C(=O)N[C@@H](CO)C(=O)N[C@@H](CCCNC(=N)N)C(=O)N[C@@H](Cc2c[nH]c3ccccc23)C(=O)O)NC(=O)[C@H]([C@@H](C)CC)NC(=O)[C@@H](Cc2ccc(O)cc2)NC1=O | 0.51 nM | 1.58 nM |
| CC[C@H](C)[C@@H]1NC(=O)[C@H](Cc2ccc(O)cc2)NC(=O)[C@H]([C@@H](C)CC)NC(=O)[C@H](C(C)C)NC(=O)[C@H]([C@@H](C)O)NC(=O)[C@H](CCCNC(=N)N)NC(=O)[C@H]([C@@H](C)CC)NC(=O)[C@H](Cc2ccc(O)cc2)NC(=O)[C@H](CCC(=O)O)NC(=O)[C@H](CC(C)C)NC(=O)CNC(=O)[C@@H](NC(=O)[C@H](CC(C)C)NC(=O)[C@H](CCCNC(=N)N)NC(=O)[C@@H](NC(=O)[C@H](CO)NC(=O)[C@H](CCC(=O)O)NC(=O)[C@@H](N)CCCCN)C(C)C)CSSC[C@H](N)C(=O)N[C@@H](CCCNC(=N)N)C(=O)N[C@@H](CC(=O)O)C(=O)NCC(=O)N[C@@H](C)C(=O)N[C@@H](CO)C(=O)N[C@@H](CCSC)C(=O)N[C@@H](CCCCN)C(=O)N[C@@H](CC(=O)O)C(=O)N[C@@H](CC(C)C)C(=O)N[C@@H](CO)C(=O)N[C@@H](C)C(=O)N[C@@H](CC(C)C)C(=O)N[C@H](C(=O)O)CSSC[C@@H](C(=O)N[C@@H](C)C(=O)N[C@@H](CO)C(=O)N[C@@H](CO)C(=O)N[C@@H](CCCNC(=N)N)C(=O)N[C@@H](Cc2c[nH]c3ccccc23)C(=O)O)NC1=O (I: H-KESVRLCGLEYIRTVIYICASSRW-OH / II: H-CRDGASMKDLSALC-OH; disulfide I:7-II:1, I:19-II:14) | 39.8 nM | 23.4 nM |
| CC[C@H](C)[C@@H]1NC(=O)[C@H](Cc2ccc(O)cc2)NC(=O)[C@H]([C@@H](C)CC)NC(=O)[C@H](C(C)C)NC(=O)[C@H]([C@@H](C)O)NC(=O)[C@H](CCCNC(=N)N)NC(=O)[C@H]([C@@H](C)CC)NC(=O)[C@H](Cc2ccc(O)cc2)NC(=O)[C@H](CCC(=O)O)NC(=O)[C@H](CC(C)C)NC(=O)CNC(=O)[C@@H](NC(=O)[C@H](CC(C)C)NC(=O)[C@H](CCCNC(=N)N)NC(=O)[C@@H](NC(=O)[C@H](CO)NC(=O)[C@H](CCC(=O)O)NC(=O)[C@@H](N)CCCCN)C(C)C)CSSC[C@H](N)C(=O)N[C@@H](CCCNC(=N)N)C(=O)N[C@@H](CC(=O)O)C(=O)NCC(=O)N[C@@H](C)C(=O)N[C@@H](CO)C(=O)N[C@@H](CCSC)C(=O)N[C@@H]([C@@H](C)O)C(=O)N[C@@H](CC(=O)O)C(=O)N[C@@H](CC(C)C)C(=O)N[C@@H](CO)C(=O)N[C@@H](C)C(=O)N[C@@H](CC(C)C)C(=O)N[C@H](C(=O)O)CSSC[C@@H](C(=O)N[C@@H](C)C(=O)N[C@@H](CO)C(=O)N[C@@H](CO)C(=O)N[C@@H](CCCNC(=N)N)C(=O)N[C@@H](Cc2c[nH]c3ccccc23)C(=O)O)NC1=O (I: H-KESVRLCGLEYIRTVIYICASSRW-OH / II: H-CRDGASMTDLSALC-OH; disulfide I:7-II:1, I:19-II:14) | 603 nM | 912 nM |
| CC[C@H](C)[C@@H]1NC(=O)[C@H](Cc2ccc(O)cc2)NC(=O)[C@H]([C@@H](C)CC)NC(=O)[C@H](C(C)C)NC(=O)[C@H]([C@@H](C)O)NC(=O)[C@H](CCCNC(=N)N)NC(=O)[C@H]([C@@H](C)CC)NC(=O)[C@H](Cc2ccc(O)cc2)NC(=O)[C@H](CCC(=O)O)NC(=O)[C@H](CC(C)C)NC(=O)CNC(=O)[C@@H](NC(=O)[C@H](CC(C)C)NC(=O)[C@H](CCCNC(=N)N)NC(=O)[C@@H](NC(=O)[C@H](CO)NC(=O)[C@H](CCC(=O)O)NC(=O)[C@@H](N)CCCCN)C(C)C)CSSC[C@H](N)C(=O)N[C@@H](CCCNC(=N)N)C(=O)N[C@@H](CCC(=O)O)C(=O)NCC(=O)N[C@@H](C)C(=O)N[C@@H](CO)C(=O)N[C@@H](CCSC)C(=O)N[C@@H](CCCCN)C(=O)N[C@@H](CCC(=O)O)C(=O)N[C@@H](CC(C)C)C(=O)N[C@@H](CO)C(=O)N[C@@H]([C@@H](C)O)C(=O)N[C@@H](CC(C)C)C(=O)N[C@H](C(=O)O)CSSC[C@@H](C(=O)N[C@@H](C)C(=O)N[C@@H](CO)C(=O)N[C@@H](CO)C(=O)N[C@@H](CCCNC(=N)N)C(=O)N[C@@H](Cc2c[nH]c3ccccc23)C(=O)O)NC1=O (I: H-KESVRLCGLEYIRTVIYICASSRW-OH / II: H-CREGASMKELSTLC-OH; disulfide I:7-II:1, I:19-II:14) | 15.1 nM | 22.4 nM |
| CC[C@H](C)[C@@H]1NC(=O)[C@H](Cc2ccc(O)cc2)NC(=O)[C@H]([C@@H](C)CC)NC(=O)[C@H](C(C)C)NC(=O)[C@H]([C@@H](C)O)NC(=O)[C@H](CCCNC(=N)N)NC(=O)[C@H]([C@@H](C)CC)NC(=O)[C@H](Cc2ccc(O)cc2)NC(=O)[C@H](CCC(=O)O)NC(=O)[C@H](CC(C)C)NC(=O)CNC(=O)[C@@H](NC(=O)[C@H](CC(C)C)NC(=O)[C@H](CCCNC(=N)N)NC(=O)[C@@H](NC(=O)[C@H](CO)NC(=O)[C@H](CCC(=O)O)NC(=O)[C@@H](N)CCCCN)C(C)C)CSSC[C@H](N)C(=O)N[C@@H]([C@@H](C)O)C(=O)N[C@@H](CC(=O)O)C(=O)NCC(=O)N[C@@H](C)C(=O)N[C@@H](CO)C(=O)N[C@@H](CCSC)C(=O)N[C@@H]([C@@H](C)O)C(=O)N[C@@H](CC(=O)O)C(=O)N[C@@H](CC(C)C)C(=O)N[C@@H](CO)C(=O)N[C@@H](C)C(=O)N[C@@H](CC(C)C)C(=O)N[C@H](C(=O)O)CSSC[C@@H](C(=O)N[C@@H](C)C(=O)N[C@@H](CO)C(=O)N[C@@H](CO)C(=O)N[C@@H](CCCNC(=N)N)C(=O)N[C@@H](Cc2c[nH]c3ccccc23)C(=O)O)NC1=O (I: H-KESVRLCGLEYIRTVIYICASSRW-OH / II: H-CTDGASMTDLSALC-OH; disulfide I:7-II:1, I:19-II:14) | 100 nM | 145 nM |
| CC[C@H](C)[C@@H]1NC(=O)[C@H](Cc2ccc(O)cc2)NC(=O)[C@H]([C@@H](C)CC)NC(=O)[C@H](C(C)C)NC(=O)[C@H]([C@@H](C)O)NC(=O)[C@H](CCCNC(=N)N)NC(=O)[C@H](C(C)C)NC(=O)[C@H](Cc2ccc(O)cc2)NC(=O)[C@H](CC(=O)O)NC(=O)[C@H](CC(C)C)NC(=O)CNC(=O)[C@@H](NC(=O)[C@H](CC(C)C)NC(=O)[C@H](CCCCN)NC(=O)[C@@H](NC(=O)[C@@H](NC(=O)[C@H](CCC(N)=O)NC(=O)[C@H](CCCNC(=N)N)NC(=O)[C@@H](N)CO)[C@@H](C)O)C(C)C)CSSC[C@H](N)C(=O)N[C@@H](CCCNC(=N)N)C(=O)N[C@@H](CCC(=O)O)C(=O)NCC(=O)N[C@@H](C)C(=O)N[C@@H](CO)C(=O)N[C@@H](CCSC)C(=O)N[C@@H](CCCCN)C(=O)N[C@@H](CCC(=O)O)C(=O)N[C@@H](CC(C)C)C(=O)N[C@@H](CO)C(=O)N[C@@H]([C@@H](C)O)C(=O)N[C@@H](CC(C)C)C(=O)N[C@H](C(=O)O)CSSC[C@@H](C(=O)N[C@@H](C)C(=O)N[C@@H](CO)C(=O)N[C@@H](CO)C(=O)N[C@@H](CCCNC(=N)N)C(=O)N[C@@H](Cc2c[nH]c3ccccc23)C(=O)O)NC1=O (I: H-SRQTVKLCGLDYVRTVIYICASSRW-OH / II: H-CREGASMKELSTLC-OH; disulfide I:8-II:1, I:20-II:14) | 33.9 nM | 18.6 nM |
| I: H-KESVRLCGLEYIRTVIYICASSRW-OH / II: H-RDLQALCCREGCSMKELSTLC-OH (disulfide I:7-II:8, I:19-II:21, II:7-II:12) | 0.35 nM | 5.5 nM |
